Literature values as cited in PMC7523345 (Investigational new drugs, 2018).

How the values were obtained:
[1] = tested on: TNBC cells with NOTCH2 rearrangement; details: cited from earlier work
[2] = tested on: TNBC cells with NOTCH1 re-arrangements; details: in vitro and in vivo; cited from earlier work

In the case of `O=S1(=O)N[C@@]2(CN1CC(F)(F)F)[C@@H]1CC[C@H]2Cc2ccc(/C=C/CN3CCC(C(F)(F)F)CC3)cc2C1` [MRK-003], the “Sensitivity of TNBC cells with NOTCH2 rearrangement” value [1] is given as “resistant” and the “Sensitivity of TNBC cells with NOTCH1 re-arrangements” value [2] is given as “sensitive”.
